These results are taken from patent US12371454B2, “Cyclic peptide compound having Kras inhibitory action” (priority 2019, dated 2025).

By IC50 is commonly meant the concentration needed to halve the response being measured.

The subject of experiment [1] is Human pancreatic cancer cell line AsPC-1. In words: Measurement of AsPC-1 cell growth inhibition (AsPC-1 CGI). In kind it is cell-based. Conditions: 96 h. In a few lines:
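AsPC-1 cells in 15% FBS RPMI-1640 were exposed to test compound for 96 hours at 37° C, with CellTiter-Glo as endpoint.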

For experiment [2], the target named is T1, Kras and SOS1 (biotin-tagged human Kras loaded with GDP, His-tagged human SOS1) (Homo sapiens, UniProt P01116, G12D).
T1 construct: made in house; host or cells: E. coli (stated for Kras only)
Description: Protein-protein interaction inhibition between Kras and SOS1 (KrasGl2D-SOS PPI) using AlphaScreen. In kind it is binding. Conditions: AlphaScreen; biotin-tagged human Kras loaded with GDP, His-tagged human SOS1; read-out: KRAS G12D-SOS PPI IC50. In a few lines:
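Kras was produced in E. coli, purified, then loaded with GDP. It was paired via streptavidin acceptor beads with His-SOS1 held on nickel donor beads, and proximity signal at 520-620 nm was read after 680 nm illumination.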
In general terms: In Alpha technology, singlet oxygen from a donor bead excites a nearby acceptor bead.

Positions of bridges follow the written chain, without caps; N, C: chain ends. Non-standard residues stand in square brackets, D forms with d. Residues, ends and D or L forms follow the SMILES beside them. *: point of attachment. hPhe(3-Cl-4-CF3) = N[C@@H](CCc1ccc(C(F)(F)F)c(Cl)c1)C(=O)O; NMePhe(4-Me) = CN[C@@H](Cc1ccc(C)cc1)C(=O)O; Abu(4,4,4-F3) = N[C@@H](CC(F)(F)F)C(=O)O; NMeAla(cPent) = CN[C@@H](CC1CCCC1)C(=O)O; NMeGly(cPent) = CN[C@H](C(=O)O)C1CCCC1; NMeCha = CN[C@@H](CC1CCCCC1)C(=O)O; NMeAhp(2) = CCCCC[C@H](NC)C(=O)O; NMeChg = CN[C@H](C(=O)O)C1CCCCC1; NMeD = CN[C@@H](CC(=O)O)C(=O)O; NMeL = CN[C@@H](CC(C)C)C(=O)O; NMeNle = CCCC[C@H](NC)C(=O)O; NMeV = CN[C@H](C(=O)O)C(C)C; NMeS = CN[C@@H](CO)C(=O)O; NMeA = CN[C@@H](C)C(=O)O; Piperidide = C1CCN(*)CC1; Pyrrolidide = C1CCN(*)C1; Ac5c = NC1(C(=O)O)CCCC1; Aze = O=C(O)[C@@H]1CCN1; Aib = CC(C)(N)C(=O)O; Cyclopropyl = C1CC1*; Sar = CNCC(=O)O

T1 sequence (P01116 1-188 isoform P01116-2 G12D): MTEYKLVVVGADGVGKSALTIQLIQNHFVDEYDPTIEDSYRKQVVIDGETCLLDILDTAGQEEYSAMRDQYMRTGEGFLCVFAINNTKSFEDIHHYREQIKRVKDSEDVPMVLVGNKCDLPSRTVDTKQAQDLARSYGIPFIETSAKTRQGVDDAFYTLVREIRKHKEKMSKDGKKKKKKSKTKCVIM

`CC[C@H](C)[C@@H]1NC(=O)[C@H](CC(C)C)N(C)C(=O)C[C@@H](C(=O)N(C)C)N(C)C(=O)[C@H](C2CCCCC2)N(C)C(=O)C2(CCCC2)NC(=O)[C@@H]2CCCN2C(=O)[C@H](CCc2ccc(C(F)(F)F)c(Cl)c2)NC(=O)CN(C)C(=O)[C@H](CC2CCCCC2)N(C)C(=O)CN(C)C(=O)CN(C)C1=O` [Compound 1729] ([NMeL]I[Sar][Sar][NMeCha][Sar][hPhe(3-Cl-4-CF3)]P[Ac5c][NMeChg][NMeD]-NMe2; lactam N-11): the IC50 in experiment [1] was 20 to 50 nM; in experiment [2] it was 0.44 nM.
Turning to `CC[C@H](C)[C@@H]1NC(=O)[C@H](CC(C)C)N(C)C(=O)C[C@@H](C(=O)N2CCCCC2)N(C)C(=O)[C@H](C2CCCCC2)N(C)C(=O)C2(CCCC2)NC(=O)[C@@H]2CCCN2C(=O)[C@H](CCc2ccc(C(F)(F)F)c(Cl)c2)NC(=O)CN(C)C(=O)[C@H](COC2CC2)N(C)C(=O)CN(C)C(=O)CN(C)C1=O` [Compound 1731] ([NMeL]I[Sar][Sar][NMeS](Cyclopropyl)[Sar][hPhe(3-Cl-4-CF3)]P[Ac5c][NMeChg][NMeD]-Piperidide; lactam N-11), the IC50 in experiment [1] is 100 to 500 nM; in experiment [2], 1.9 nM.
For `CCCCC[C@H]1C(=O)N[C@@H]([C@@H](C)CC)C(=O)N(C)CC(=O)N(C)CC(=O)N(C)[C@@H](CC2CCCCC2)C(=O)N(C)CC(=O)N[C@@H](CCc2ccc(C(F)(F)F)c(Cl)c2)C(=O)N2CCC[C@H]2C(=O)NC2(CCCC2)C(=O)N(C)[C@@H](C2CCCCC2)C(=O)N(C)[C@H](C(=O)N2CCCCC2)CC(=O)N1C` [Compound 1735] ([NMeAhp(2)]I[Sar][Sar][NMeCha][Sar][hPhe(3-Cl-4-CF3)]P[Ac5c][NMeChg][NMeD]-Piperidide; lactam N-11) the same measures were 50 to 100 nM and 1.1 nM.
For `CC[C@H](C)[C@@H]1NC(=O)[C@H](CC(C)C)N(C)C(=O)C[C@@H](C(=O)N2CCCCC2)N(C)C(=O)[C@H](C(C)C)N(C)C(=O)C2(CCCC2)NC(=O)[C@@H]2CCCN2C(=O)[C@H](CCc2ccc(C(F)(F)F)c(Cl)c2)NC(=O)CN(C)C(=O)[C@H](COC2CC2)N(C)C(=O)[C@@H]2CCN2C(=O)[C@H](C)N(C)C1=O` [Compound 1738] ([NMeL]I[NMeA][Aze][NMeS](Cyclopropyl)[Sar][hPhe(3-Cl-4-CF3)]P[Ac5c][NMeV][NMeD]-Piperidide; lactam N-11) the same measures were 100 to 500 nM and 11 nM.
For `CC[C@H](C)[C@@H]1NC(=O)[C@H](CC(C)C)N(C)C(=O)C[C@@H](C(=O)N2CCCCC2)N(C)C(=O)[C@H](C(C)C)N(C)C(=O)C2(CCCC2)NC(=O)[C@@H]2CCCN2C(=O)[C@H](CCc2ccc(C(F)(F)F)c(Cl)c2)NC(=O)CN(C)C(=O)[C@H](CC2CCCC2)N(C)C(=O)[C@@H]2CCN2C(=O)[C@H](C)N(C)C1=O` [Compound 1739] ([NMeL]I[NMeA][Aze][NMeAla(cPent)][Sar][hPhe(3-Cl-4-CF3)]P[Ac5c][NMeV][NMeD]-Piperidide; lactam N-11) the same measures were 100 to 500 nM and 4.7 nM.
In the case of `CCCC[C@H]1C(=O)N[C@@H]([C@@H](C)CC)C(=O)N(C)CC(=O)N(C)CC(=O)N(C)[C@@H](CC2CCCCC2)C(=O)N(C)CC(=O)N[C@@H](CCc2ccc(C(F)(F)F)c(Cl)c2)C(=O)N2CCC[C@H]2C(=O)NC2(CCCC2)C(=O)N(C)[C@@H](C2CCCCC2)C(=O)N(C)[C@H](C(=O)N2CCCCC2)CC(=O)N1C` [Compound 1740] ([NMeNle]I[Sar][Sar][NMeCha][Sar][hPhe(3-Cl-4-CF3)]P[Ac5c][NMeChg][NMeD]-Piperidide; lactam N-11), the IC50 was 50 to 100 nM in experiment [1] and 0.79 nM in experiment [2].
For `CC(C)C[C@H]1C(=O)N[C@@H](CC(F)(F)F)C(=O)N(C)CC(=O)N(C)CC(=O)N(C)[C@@H](CC2CCCCC2)C(=O)N(C)CC(=O)N[C@@H](CCc2ccc(C(F)(F)F)c(Cl)c2)C(=O)N2CCC[C@H]2C(=O)NC2(CCCC2)C(=O)N(C)[C@@H](C2CCCCC2)C(=O)N(C)[C@H](C(=O)N2CCCCC2)CC(=O)N1C` [Compound 1744] ([NMeL][Abu(4,4,4-F3)][Sar][Sar][NMeCha][Sar][hPhe(3-Cl-4-CF3)]P[Ac5c][NMeChg][NMeD]-Piperidide; lactam N-11) the same measures were 100 to 500 nM and 4 nM.
On to `CC[C@H](C)[C@@H]1NC(=O)[C@H](CC(C)C)N(C)C(=O)C[C@@H](C(=O)N2CCCC2)N(C)C(=O)[C@H](C(C)C)N(C)C(=O)C2(CCCC2)NC(=O)[C@@H]2CCCN2C(=O)[C@H](CCc2ccc(C(F)(F)F)c(Cl)c2)NC(=O)CN(C)C(=O)[C@H](Cc2ccc(C)cc2)N(C)C(=O)CN(C)C(=O)CN(C)C1=O` [Compound 1749] ([NMeL]I[Sar][Sar][NMePhe(4-Me)][Sar][hPhe(3-Cl-4-CF3)]P[Ac5c][NMeV][NMeD]-Pyrrolidide; lactam N-11), for which the IC50 in experiment [1] was 100 to 500 nM; in experiment [2], 0.74 nM.
For `CC[C@H](C)[C@@H]1NC(=O)[C@H](CC(C)C)N(C)C(=O)C[C@@H](C(=O)N2CCCCC2)N(C)C(=O)[C@H](C(C)C)N(C)C(=O)C(C)(C)NC(=O)[C@@H]2CCCN2C(=O)[C@H](CCc2ccc(C(F)(F)F)c(Cl)c2)NC(=O)CN(C)C(=O)[C@H](CC2CCCCC2)N(C)C(=O)[C@@H]2CCN2C(=O)[C@H](C)N(C)C1=O` [Compound 1751] ([NMeL]I[NMeA][Aze][NMeCha][Sar][hPhe(3-Cl-4-CF3)]P[Aib][NMeV][NMeD]-Piperidide; lactam N-11) the same measures were 100 to 500 nM and 7.3 nM.
For `CC[C@H](C)[C@@H]1NC(=O)[C@H](CC(C)C)N(C)C(=O)C[C@@H](C(=O)N2CCCC2)N(C)C(=O)[C@H](C2CCCCC2)N(C)C(=O)C2(CCCC2)NC(=O)[C@@H]2CCCN2C(=O)[C@H](CCc2ccc(C(F)(F)F)c(Cl)c2)NC(=O)CN(C)C(=O)[C@H](CC2CCCCC2)N(C)C(=O)CN(C)C(=O)CN(C)C1=O` [Compound 1757] ([NMeL]I[Sar][Sar][NMeCha][Sar][hPhe(3-Cl-4-CF3)]P[Ac5c][NMeChg][NMeD]-Pyrrolidide; lactam N-11) the same measures were 20 to 50 nM and 0.43 nM.
For `CC[C@H](C)[C@@H]1NC(=O)[C@H](CC(C)C)N(C)C(=O)C[C@@H](C(=O)N2CCCC2)N(C)C(=O)[C@H](C2CCCC2)N(C)C(=O)C2(CCCC2)NC(=O)[C@@H]2CCCN2C(=O)[C@H](CCc2ccc(C(F)(F)F)c(Cl)c2)NC(=O)CN(C)C(=O)[C@H](Cc2ccc(C)cc2)N(C)C(=O)CN(C)C(=O)CN(C)C1=O` [Compound 1761] ([NMeL]I[Sar][Sar][NMePhe(4-Me)][Sar][hPhe(3-Cl-4-CF3)]P[Ac5c][NMeGly(cPent)][NMeD]-Pyrrolidide; lactam N-11) the same measures were 20 to 50 nM and 0.41 nM.
`CC[C@H](C)[C@@H]1NC(=O)[C@H](CC(C)C)N(C)C(=O)C[C@@H](C(=O)N(C)C)N(C)C(=O)[C@H](C2CCCCC2)N(C)C(=O)C2(CCCC2)NC(=O)[C@@H]2CCCN2C(=O)[C@H](CCc2ccc(C(F)(F)F)c(Cl)c2)NC(=O)CN(C)C(=O)[C@H](Cc2ccc(C)cc2)N(C)C(=O)CN(C)C(=O)CN(C)C1=O` [Compound 1762] ([NMeL]I[Sar][Sar][NMePhe(4-Me)][Sar][hPhe(3-Cl-4-CF3)]P[Ac5c][NMeChg][NMeD]-NMe2; lactam N-11): the IC50 is 20 to 50 nM in experiment [1] and 0.37 nM in experiment [2].
